Here are results for 88 molecules from PubChem BioAssay AID1645864 (Buhrlage Lab, Dana-Farber Cancer Institute and Novartis …, 2021).

The source made the active and inactive calls.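 Rule for the calls: active = maximal inhibition of USP17 at or above 30% in the confirmation dose-response, a value not among the printed readouts; inactive = the rest.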 Where only a bound is given, the exact number is not on record here.

Sequence of Ubiquitin carboxyl-terminal hydrolase 17-like protein 5 (Homo sapiens) (A8MUK1 whole entry, looked up): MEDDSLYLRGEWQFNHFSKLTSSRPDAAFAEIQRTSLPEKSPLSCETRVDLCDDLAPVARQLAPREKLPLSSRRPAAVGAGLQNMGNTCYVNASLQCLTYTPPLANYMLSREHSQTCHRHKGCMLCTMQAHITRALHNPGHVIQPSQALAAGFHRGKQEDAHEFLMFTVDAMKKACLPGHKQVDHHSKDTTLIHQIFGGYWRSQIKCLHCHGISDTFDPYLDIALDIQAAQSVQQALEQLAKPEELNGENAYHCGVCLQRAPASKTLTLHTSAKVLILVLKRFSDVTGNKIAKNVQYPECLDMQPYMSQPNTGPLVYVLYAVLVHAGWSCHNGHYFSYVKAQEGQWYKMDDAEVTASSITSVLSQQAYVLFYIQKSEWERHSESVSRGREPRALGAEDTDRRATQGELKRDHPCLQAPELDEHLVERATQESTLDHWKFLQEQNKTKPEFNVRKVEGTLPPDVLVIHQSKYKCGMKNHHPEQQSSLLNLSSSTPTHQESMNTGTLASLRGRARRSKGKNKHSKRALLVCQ

This experiment concerns the target Ubiquitin carboxyl-terminal hydrolase 17-like protein 5 (Homo sapiens) (UniProt A8MUK1). Kind of experiment: ubiquitin-specific protease 17 DUB inhibitors, concentration-effect assay, cell-free, verification of initial screening actives (AID 1645864). Particulars: purified USP17, ubiquitin-rhodamine cleavage fluorescence, 3 h.
One may read the IC50 as the concentration that inhibits the measured activity by half. Regarding `Cc1cccc(NC(=O)CSc2nnc(-c3n[nH]c4c3CCC4)n2N)c1C`, the IC50 is 18.1 µM.

Regarding `O=C(NC1CCN(Cc2ccccc2)CC1)c1[nH]nc2c1COc1ccccc1-2`, the IC50 is > 50 µM (inactive).

For `COc1cccc(CC(=O)Nc2cc(F)c3nc(N4CCOCC4)ccc3c2)c1`, the IC50 was > 50 µM (inactive).

As for `COc1ccc(OC)c(C2CC(=O)Nc3n[nH]c(-c4ccccc4)c32)c1` (stereo not drawn), the IC50 is 24.6 µM.

Consider `Clc1cc2nc(N3CCN(c4ccccn4)CC3)c3nncn3c2cc1Cl`, for which the IC50 is 2.17 µM.

On to `O=C(NCCc1ccccc1F)c1cn2cc(Cl)ccc2n1`, for which the IC50 is 28.7 µM.

In the case of `COc1ccc(N2CCN(Cc3nnnn3Cc3ccc4c(c3)OCO4)CC2)cc1`, the IC50 is > 50 µM (inactive).

On to `O=C1CC(C(=O)Nc2ccccc2F)n2nc(-c3ccccc3)cc2N1` (stereo not drawn), for which the IC50 was 25.3 µM.

For `COCCn1ccc2nc(C)c(C(=O)Nc3ccc4c(c3)OCCO4)cc2c1=O`, the IC50 is 37 µM.

Regarding `CC1=C[C@H]2N(c3ccc(C)cc31)[C@H](C(=O)c1cccs1)[C@@H](C(=O)c1ccc(F)cc1)[C@]21C(=O)Nc2ccccc21`, the IC50 is > 50 µM (inactive).

With `CCc1cccc(CC)c1NC(=O)COC(=O)c1cc2cccc(OC)c2oc1=O`, the IC50 is 4.93 µM.

With `COc1ccc(/C=C/C(=O)N2CCc3ccccc32)cc1S(=O)(=O)N1CCOCC1`, the IC50 is > 50 µM (inactive).

Turning to `CCOc1ccc(-c2noc(-c3nn(-c4cccc(OC)c4)ccc3=O)n2)cc1`, the IC50 was 10 µM.

Consider `COc1cc2c(cc1OC)-c1cc(NCc3cc(OC)c(OC)c(OC)c3)nc(=O)n1CC2`, for which the IC50 was > 50 µM (inactive).

`Cc1ccc(S(=O)(=O)N2CCCCC2)cc1NC(=O)Cc1cccc(F)c1`: the IC50 was > 50 µM (inactive).

Turning to `CC(C)(C)C(=O)Nc1ccc(SCc2nnc(-c3ccccc3)o2)cc1`, the IC50 was > 50 µM (inactive).

Consider `O=C(Cn1cnc2ccccc21)Nc1ccc2c(c1)CCC2`, for which the IC50 was 27.9 µM.

For `CCOc1ccc(CC(=O)Nc2ccc(-c3cn4cccnc4n3)cc2)cc1`, the IC50 was 31.7 µM.

Turning to `CC(C)c1cc(NCc2ccccc2)n2nc(-c3cccnc3)nc2n1`, the IC50 is 18.9 µM.

As to `O=C(NCc1ccccc1)c1ccc(-c2ccc(N3CCCC3)nn2)cc1`, the IC50 was > 50 µM (inactive).

`CC(C)CCN1C(=O)C2C(C(=O)Nc3ccc(Oc4ccccc4)cc3)C3C=CC2(O3)C1C(=O)NC1CCCCC1` (stereo not drawn): the IC50 is 34 µM.

With `O=S1(=O)NC(=NCCc2ccc(Cl)cc2Cl)c2ccccc21`, the IC50 is 36.4 µM.

Regarding `COc1ccc(OC)c(-c2cn3ccn(-c4ccc5c(c4)CCC5)c(=O)c3n2)c1`, the IC50 is > 50 µM (inactive).

As for `Cc1nc2cc(NC(=O)C3CN(C(=O)c4cnccn4)C3)ccc2s1`, the IC50 was > 50 µM (inactive).

In the case of `COc1cccc2c1NC(=O)C21CCN(C(=O)Nc2cccc3ccccc23)CC1`, the IC50 was > 50 µM (inactive).

As for `Cc1cn[nH]c1C1COCCN1C(=O)c1ccc2ncccc2c1` (stereo not drawn), the IC50 was > 50 µM (inactive).

Consider `Cc1cc(C)cc(NC(=O)CN2C(=O)CC(c3ccccc3)Sc3ccccc32)c1` (stereo not drawn), for which the IC50 was > 50 µM (inactive).

Turning to `CN1C(=O)c2cc(NC(=O)c3ccccc3Cl)ccc2Oc2ccccc21`, the IC50 is > 50 µM (inactive).

Turning to `N#Cc1ccccc1COC(=O)c1ccc2ccccc2n1`, the IC50 was > 50 µM (inactive).

Turning to `O=C(Nc1cccc(F)c1)c1ncoc1-c1ccco1`, the IC50 is > 50 µM (inactive).

In the case of `Cc1cc(C)c(NC(=O)Cn2c(=O)n(CCC(=O)NCc3ccc4c(c3)OCO4)c(=O)c3sccc32)c(C)c1`, the IC50 is 3.02 µM.

As for `COc1ccc(C(=O)CCN2CCOCC2)cc1[N+](=O)[O-]`, the IC50 was > 50 µM (inactive).

On to `O=C(NCCc1ccco1)c1ccc(N2CCOc3ccccc32)s1`, for which the IC50 was 15.4 µM.

Take `Cc1cnc2nc3c(cc2c1)CN(S(=O)(=O)c1cc(F)ccc1C)CC3`: the IC50 was > 50 µM (inactive).

Regarding `CCn1cc2c(n1)c(=O)n(Cc1ccc(C)cc1)c(=O)n2CC(=O)Nc1ccc(F)cc1`, the IC50 is 4.06 µM.

Consider `O=C(NCCc1ccccn1)c1cc(-c2ccc(Br)cc2)n[nH]1`, for which the IC50 is 17.9 µM.

`O=C(Cn1cnc2c(oc3ccccc32)c1=O)NCc1ccccc1Cl`: the IC50 is 14.5 µM.

In the case of `CSc1ccccc1C(=O)Nc1sc2c(c1C(N)=O)CCC(C)C2` (stereo not drawn), the IC50 was 2.35 µM.

As to `O=C(COc1ccc(Cl)cc1Cl)Nc1ccccc1-c1nc2ccccc2[nH]1`, the IC50 was 2.12 µM.

For `COc1ccc(-n2ccc(=O)c(-c3nc(-c4ccccc4F)no3)n2)cc1OC`, the IC50 was > 50 µM (inactive).

Take `O=C(COC(=O)c1ccc(NS(=O)(=O)c2ccc3c(c2)OCCO3)cc1)NCc1ccc(Cl)cc1`: the IC50 was > 50 µM (inactive).

Consider `CCc1ccc2[nH]c3c(c(=O)c2c1)CN(CC(=O)NCc1ccc2c(c1)OCO2)CC3`, for which the IC50 was 28.1 µM.

Take `CN(C)S(=O)(=O)c1ccc(N2CCCC2)c(C(=O)Nc2ccc(-c3cn4ccsc4n3)cc2)c1`: the IC50 is > 50 µM (inactive).

`O=C(COc1cccc(C(=O)NCc2ccccc2)c1)Nc1ccc(Oc2ccccc2)cc1`: the IC50 was 34.5 µM.

`Cc1nc2ccc(NC(=O)COc3ccccc3[N+](=O)[O-])cc2s1`: the IC50 was 3.26 µM.

On to `COc1ccc(NC(=O)c2ccc(Nc3nnc(C)c4ccccc34)cc2)cc1`, for which the IC50 is > 50 µM (inactive).

For `CCN1C(=O)c2cccnc2Sc2cc(NC(=O)c3ccc(Cl)s3)ccc21`, the IC50 was > 50 µM (inactive).

Regarding `CC(=O)c1cccc(NC(=O)c2ccc(CN(c3ccc(C)c(C)c3)S(C)(=O)=O)cc2)c1`, the IC50 was > 50 µM (inactive).

In the case of `CCOc1ccc(NC(=O)Cn2c(=O)n(CCC(=O)NCc3ccco3)c(=O)c3ccccc32)cc1`, the IC50 was 5.43 µM.

For the molecule `Nc1nc(-c2ccc[nH]2)cs1`, the IC50 was > 50 µM (inactive).

In the case of `CCOC(=O)[C@@H]1[C@@H](c2ccccc2)CN2CCN(C(=O)c3cnccn3)C[C@H]12`, the IC50 was > 50 µM (inactive).

`Cc1ccc(-c2c(C(=O)Nc3ccc(S(N)(=O)=O)cc3)oc(=O)c3ccccc23)cc1`: the IC50 was 31.9 µM.

As for `O=C(NCc1ccc(-c2nc3cnccc3o2)cc1)c1cc2ccccc2o1`, the IC50 was 3.29 µM.

Regarding `COc1ccc(NC(=O)c2nnn(-c3ccccc3)c2C)cc1OC`, the IC50 is > 50 µM (inactive).

Regarding `CC1CCc2sc(NC(=O)c3ccccc3Oc3ccccc3)c(C(N)=O)c2C1` (stereo not drawn), the half-inhibitory concentration (IC50) is 6.96 µM.

With `COc1cc(-c2nc(C(N)=O)c3[nH]c(=O)n(-c4ccc(C)cc4)c3n2)cc(OC)c1OC`, the IC50 was 1.96 µM.

Take `O=C(CSc1nnnn1-c1ccccc1)Nc1ccccc1`: the IC50 was 36.8 µM.

Consider `Cc1noc(-c2cccn(Cc3cccc(C(F)(F)F)c3)c2=O)n1`, for which the IC50 was > 50 µM (inactive).

As to `Cc1oc(C2CC2)cc1C(=O)N1CCC2(CC1)CC1(CO2)Nc2ccccc2-n2cccc21` (stereo not drawn), the IC50 was > 50 µM (inactive).

Consider `COc1ccc(C2CC(c3ccc(C)cc3)N(C(=O)C3CC3)c3ncnn32)cc1` (stereo not drawn), for which the IC50 was > 50 µM (inactive).

Take `C=Cc1ccc(Cn2cccc(S(=O)(=O)N3CCCC3)c2=O)cc1`: the IC50 was 3.92 µM.

As to `O=C(c1ccc(COc2cccc3ccccc23)o1)N1CCC(Cc2ccccc2)CC1`, the IC50 is > 50 µM (inactive).

Take `Cc1nc(C(=O)Nc2cccc(Cl)c2Cl)nn1-c1cc(Cl)cc(Cl)c1`: the IC50 is 0.135 µM.

For the molecule `COc1cccc2c1C(=O)c1ccc3c(c1C2=O)C(=O)CC(C)(O)C3` (stereo not drawn), the IC50 is 36.4 µM.

In the case of `COc1cccc2cccc(O)c12`, the IC50 was > 50 µM (inactive).

For the molecule `COc1ccc(-c2cc3c(=O)n(CC(=O)Nc4ccccc4F)ccn3n2)cc1OC`, the IC50 was 3.97 µM.

With `O=C(CC1C(=O)N(Cc2ccccc2)c2nc3ccccc3n21)NCCc1ccccc1` (stereo not drawn), the IC50 is 18.7 µM.

For the molecule `Fc1ccc(Cn2ccc(-c3cnc(-c4ccccc4)s3)n2)cc1`, the IC50 was > 50 µM (inactive).

As to `Fc1ccccc1Cc1nc(-c2ccc3nncn3c2)no1`, the IC50 was > 50 µM (inactive).

Consider `O=C(CCc1ccc(S(=O)(=O)N2CCOCC2)cc1)Nc1ccc2c(c1)OCCO2`, for which the IC50 is > 50 µM (inactive).

For the molecule `CC(=O)Nc1ccc(S(=O)(=O)NCc2ccc(C(=O)NCCc3ccc(Cl)cc3)cc2)cc1`, the half-maximal inhibitory concentration (IC50) is 2.31 µM.

Turning to `Cc1ccc2nc(CCc3ccc(NS(=O)(=O)c4cccc(Cl)c4C)cc3)[nH]c2c1`, the IC50 is > 50 µM (inactive).

Regarding `COc1ccc(-c2nc3n(n2)C(CC(=O)Nc2cccc4ccccc24)C(=O)N3)cc1` (stereo not drawn), the IC50 was 8.65 µM.

On to `O=C(COc1ccc2c(c1)CCC2)Nc1ccc2c(c1)CCC2`, for which the IC50 was 19.1 µM.

In the case of `CCOc1ccc(-c2nc(C#N)c(N3CCN(C(=O)c4ccccc4C)CC3)o2)cc1`, the IC50 is 3.3 µM.

Consider `O=C(Cn1c(=O)n(Cc2ccc(F)cc2)c(=O)c2ncccc21)Nc1ccccc1`, for which the IC50 is 45.2 µM.

Regarding `COc1ccc(-c2cc(C(F)F)n3ncc(C(=O)Nc4ccc5c(c4)OCCO5)c3n2)cc1`, the IC50 was > 50 µM (inactive).

As to `COc1ccc(C(=O)C2CC(=O)Nc3c2c(C)nn3-c2ccc(Br)cc2)cc1` (stereo not drawn), the IC50 is 10 µM.

As for `COc1ccc(C2SCC(=O)Nc3c2c(=O)[nH]n3C2CCCCC2)cc1` (stereo not drawn), the IC50 was 28.7 µM.

For the molecule `N#Cc1cccc(S(=O)(=O)N2CCc3nc4ccccc4n3CC2)c1`, the IC50 is 19.5 µM.

With `CCOc1ccc(NC(=O)Cn2cc(C(=O)c3ccc(Cl)cc3)c(=O)c3cc(OC)ccc32)cc1`, the IC50 is 2.74 µM.

As for `Cc1nn(-c2cccc(F)c2)c2c1C(C(=O)c1ccc(Cl)s1)CC(=O)N2` (stereo not drawn), the IC50 is 39.8 µM.

On to `Cc1ccccc1NC(=O)Cn1cc(-c2nc(C3CC3)no2)ccc1=O`, for which the IC50 was > 50 µM (inactive).

As to `COc1ccc(C(=O)Nc2ccc(S(=O)(=O)N3CCCCC3)cc2)cc1`, the IC50 is > 50 µM (inactive).

Regarding `COc1cc(O)c2c(c1)C1=CC(=O)C(O)=C[C@]1(C)OC2=O`, the IC50 was 49.4 µM.

In the case of `O=C(Nc1ccccc1Br)c1ccn(COc2ccccc2F)n1`, the IC50 is 16.5 µM.

Regarding `N#Cc1c(-c2cccs2)cc(-c2cccs2)[nH]c1=O`, the IC50 is > 50 µM (inactive).

Turning to `Cc1noc(-c2cc(=O)n(CC(=O)NCc3ccccc3)c3ccccc23)n1`, the IC50 was 45.6 µM.
